{"source": "patent US20060149043A1", "about": "“Fluorescent lanthadine complex” (Japan Science and Technology Agency, priority 2003, published 2006)", "key": {"[1]": {"assay": "Time resolved luminescence measurement of terbium (III) complexes (luminescence, lifetime, water coordination number)", "type": "physicochemical", "conditions": "terbium (III) complex", "description": "Compounds 8, 11 and 15 each were dissolved in dimethyl sulfoxide to prepare 10 mM stock solutions. In addition, terbium (III) chloride hexahydrate was dissolved in dimethyl sulfoxide to prepare a 10 mM stock solution. Equal volumes of the terbium (III) chloride hexahydrate solution prepared were added to the individually prepared solutions of Compounds 8, 11 and 15, and, the resulting solutions were left standing for 30 minutes at room temperature to prepare terbium (III) complexes of Compounds 8, 11 and 15. The solutions were diluted using a 100 mM HEPES buffer (pH 7.4), and the luminescences of 8 μM solutions were measured.\n(§1) Luminescences were measured using a time resolved measurement. Luminescences were measured for all complexes at an excitation wavelength of 330 nm, a delay time of 0.05 ms and a gate time of 1.00 ms. In addition, the luminescence lifetimes were measured using an excitation wavelength of […], and the luminescence wavelengths were measured using 545 nm for individual terbium complexes and 615 nm for individual europium complexes [100 mM HEPES buffer (pH 7.4) in each 8 μM].\nThe luminescence spectra of the terbium (III) complexes of Compounds 8, 11 and 15 are shown in FIG. 11, and their luminescence life and water coordination numbers are shown in Table 1."}, "[2]": {"assay": "Time resolved luminescence measurement of europium (III) complexes (luminescence, lifetime, water coordination number)", "type": "physicochemical", "conditions": "europium (III) complex", "description": "Compounds 8, 11 and 15 each were dissolved in dimethylsulfoxide to prepare 10 mM stock solutions. In addition, europium (III) chloride hexahydrate was dissolved in dimethylsulfoxide to prepare a 10 mM stock solution. Equal volumes of the europium (III) chloride hexahydrate solution were added to the individually prepared solutions of Compounds 8, 11 and 15, and the resulting solutions were left standing for 30 minutes at room temperature to prepare the europium (III) complexes of the Compounds 8, 11 and 15. These solutions were diluted using 100 mM HEPES buffer solution (pH 7.4), and the luminescences of the 8 μM solutions were measured.\nas §1\nIn addition, the luminescence spectra of the europium (III) complexes of Compounds 8, 11 and 15 are shown in FIG. 12, and their luminescence life and water coordination numbers are shown in Table 2."}, "[3]": {"conditions": "8 μM, 100 mM HEPES buffer (pH 7.4), excitation 330 nm, delay time 0.05 ms, gate time 1.00 ms"}}, "data": [{"smiles": "Cc1cc(=O)[nH]c2cc(NC(=O)CN(CCN(CCN(CC(=O)O)CC(=O)O)CC(=O)O)CC(=O)O)ccc12", "note": "[DTPA-cs124]", "values": [{"measurement": "Water coordination number", "setting": "[1]", "result": 1.23}, {"measurement": "Life time (H2O)", "setting": "[1]; 8 μM in 100 mM HEPES buffer (pH 7.4), luminescence wavelength 545 nm, H2O", "result": 1.46, "unit": "ms"}, {"measurement": "Luminescence emission (intensity)", "setting": "[1]; [3]", "result": "almost identical"}, {"measurement": "Life time (D2O)", "setting": "[1]; luminescence wavelength 545 nm, D2O", "result": 2.55, "unit": "ms"}, {"measurement": "Water coordination number", "setting": "[2]", "result": 1.34}, {"measurement": "Life time (H2O)", "setting": "[2]; 8 μM in 100 mM HEPES buffer (pH 7.4), luminescence wavelength 615 nm, H2O", "result": 0.59, "unit": "ms"}, {"measurement": "Luminescence emission (intensity)", "setting": "[2]; [3]", "result": "almost identical"}, {"measurement": "Life time (D2O)", "setting": "[2]; luminescence wavelength 615 nm, D2O", "result": 2.38, "unit": "ms"}]}]}
